The record followed here is patent US20210188843A1, “QUINOLINE COMPOUNDS AND THEIR PREPARATION AND USE AS ANTIMALARIAL AGENTS” (The United States of America,as represented by the …, priority 2018, published 2021).

In brackets after ≈: the same amount, converted by molar mass.

For orientation: solubility means the concentration that dissolves in the medium under given conditions. A high value points to a readily soluble substance. As usually defined, the Papp is a coefficient for how fast a substance crosses the barrier. A higher Papp goes with fast passage. The term EC50 denotes the concentration at which the effect is half-maximal.

The nature of data set [1]: Solubility pH 7.4. In kind it is physicochemical. Conditions: aqueous buffer, Table 1.
Data set [2] in a line: PAMPA permeability. In kind it is in vitro ADME. Conditions: Table 1.
Data set [3] has as its system Asexual parasites of P. falciparum strain 3D7. Nature of the data set: In vitro drug activity on asexual parasites (SYBR Green assay). In kind it is cell-based. Conditions: Plasmodium falciparum; Table 1; P. falciparum 3D7 asexual stage, 72 h; read-out: Asexual EC50. Put shortly: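 Growth was measured by SYBR Green I fluorescence (excitation 490 nm, emission 520 nm) after freeze-thaw lysis and 30 min staining at room temperature. Parasites (0.5% parasitemia, 2% hematocrit) had been incubated 72 h with compound, DMSO below 0.5%. Conditions were run in duplicate with no-drug and RBC-alone controls.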

Data set [4] can be described thus: Microsomal stability (rat). Particulars: rat microsomes, Table 1, read-out: Microsomal Stability (rat) T1/2. In kind it is in vitro ADME.

`Cc1cc(N2CC3(COC3)C2)c(C#N)cc1-n1c(=N)n(C)c2cnc3ccc(-c4ccc(Cl)cc4)cc3c21` [Compound 121, 5-(8-(4-chlorophenyl)-2-imino-3-methyl-2,3-dihydro-1H-imidazo[4,5-c]quinolin-1-yl)-4-methyl-2-(2-oxa-6-azaspiro[3.3]heptan-6-yl)benzonitrile] showed a solubility in data set [1] of 1.3 µg/mL (≈ 2.5 µM). This compound gave a Papp in data set [2] of 6.2 ×10⁻⁶ cm/s. For the same compound, in data set [3], the EC50 was determined as 148 nM. Moreover, in data set [4], the half-life was more than 30 min.

Take `COc1cc(-c2ccc3ncc4c(c3c2)n(-c2cc(C#N)ccc2C)c(=N)n4C)ccc1Cl` [Compound 31, 3-(8-(4-chloro-3-methoxyphenyl)-2-imino-3-methyl-2,3-dihydro-1H-imidazo[4,5-c]quinolin-1-yl)-4-methylbenzonitrile]: in data set [1], the solubility was less than 1 µg/mL. This compound came in with a Papp in data set [2] of 433 ×10⁻⁶ cm/s. Besides, in data set [3], the EC50 turned out to be 27.2 nM. Also, in data set [4], the half-life was more than 30 min.

Consider `Cc1ccc(C#N)cc1-n1c(=N)n(C)c2cnc3ccc(-c4ccc5[nH]ncc5c4)cc3c21` [Compound 107, 3-(2-imino-8-(1H-indazol-5-yl)-3-methyl-2,3-dihydro-1H-imidazo[4,5-c]quinolin-1-yl)-4-methylbenzonitrile], for which the solubility in data set [1] was more than 42 µg/mL. In addition, the Papp in data set [2] came to 22.6 ×10⁻⁶ cm/s. Also, in data set [3], the EC50 worked out at 12.9 nM. For the same compound, the half-life in data set [4] came to 22.9 min.

For the compound `C/N=c1\n(C)c2cnc3ccc(-c4ccc(Cl)cc4)cc3c2n1-c1cc(C#N)ccc1C` [Compound 6, (E)-3-(8-(4-chlorophenyl)-3-methyl-2-(methylimino)-2,3-dihydro-1H-imidazo[4,5-c]quinolin-1-yl)-4-methylbenzonitrile], the solubility in data set [1] came out at 9.6 µg/mL (≈ 21.9 µM). In data set [2], this compound came in with a Papp of 921 ×10⁻⁶ cm/s. In data set [3], the EC50 is 279 nM. For the same compound, the half-life in data set [4] was more than 30 min.

Regarding `Cc1ccc(C#N)cc1-n1c(=N)n(C)c2cnc3ccc(-c4ccc(F)c(O)c4)cc3c21` [Compound 39, 3-(8-(4-fluoro-3-hydroxyphenyl)-2-imino-3-methyl-2,3-dihydro-1H-imidazo[4,5-c]quinolin-1-yl)-4-methylbenzonitrile], the solubility in data set [1] was more than 42 µg/mL. The compound further gave a Papp in data set [2] of 147 ×10⁻⁶ cm/s. Besides, the EC50 in data set [3] worked out at 54.5 nM. Further, in data set [4], the half-life is more than 30 min.

As for `CNCc1cccc(-n2c(=N)n(C)c3cnc4ccc(-c5ccc(Cl)cc5)cc4c32)c1` [Compound 67, 1-(3-(8-(4-chlorophenyl)-2-imino-3-methy-2,3-dihydro-H-imidazo[4,5-c]quinolin-1-yl)phenyl)-N-methylmethanamine], the solubility in data set [1] is more than 42 µg/mL. The Papp in data set [2] was found to be 48.1 ×10⁻⁶ cm/s. Also, the EC50 in data set [3] came out at 2990 nM. Also, in data set [4], the half-life is more than 30 min.

As for `Cc1ccc(Cl)cc1-n1c(=N)n(C)c2cnc3ccc(-c4ccc(Cl)cc4)cc3c21` [Compound 29, 1-(5-chloro-2-methylphenyl)-8-(4-chlorophenyl)-3-methyl-1,3-dihydro-2H-imdazo[4,5-c]quinolin-2-imine], in data set [1], the solubility is less than 1 µg/mL. This compound also came in with a Papp in data set [2] of 1680 ×10⁻⁶ cm/s. Besides, the EC50 in data set [3] was found to be 136 nM. For the same compound, the half-life in data set [4] is more than 30 min.
